Source: patent US3995021A, “Antigens of 5,5'alkylphenyl barbituric acids and related hydantoin compounds” (Biological Developments, Inc., priority 1975, dated 1976)

The compounds below were run on antibodies raised with the product of Example 1 (assay: Radioimmune assay: cross-reactivity of other barbituric acids (competitive inhibition of tritiated phenobarbital binding to antibody)). Conditions: at 50% inhibition, 4° C, 2 hours.

SMILES	Percent Cross-Reactivity
CCCC(C)C1(CC)C(=O)NC(=S)NC1=O (stereo not shown) [Thiopental]	0.2%
CCC1(CCC(C)C)C(=O)NC(=O)NC1=O [Amobarbital]	0.6%
CCCC(C)C1(CC)C(=O)NC(=O)NC1=O (stereo not shown) [Pentobarbital]	2.2%
C=CCC1(C(C)CCC)C(=O)NC(=O)NC1=O (stereo not shown) [Secobarbital]	1.8%
